#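 Cultured in 96-well plates, cells were exposed to test compound for 48 hours across five concentrations. Here, GI50 denotes the concentration required for 50% inhibition of growth. TGI: total growth inhibition.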
# Experiments:
# Assay in all cases: NCI-60 cell line screen, 48 h
# SNB-19 CNS = system: SNB-19 CNS
# NCI-H226 lung = system: NCI-H226 lung
# SF-539 CNS = system: SF-539 CNS
# MDA-MB-435 = system: MDA-MB-435
# PC-3 prostate = system: PC-3 prostate
# HCT-116 colon = system: HCT-116 colon
# SK-MEL-5 melanoma = system: SK-MEL-5 melanoma
# MDA-MB-231 breast = system: MDA-MB-231 breast
# HCT-15 colon = system: HCT-15 colon
# NCI-H460 lung = system: NCI-H460 lung
# SK-MEL-2 melanoma = system: SK-MEL-2 melanoma
# CCRF-CEM leukemia = system: CCRF-CEM leukemia
# M14 melanoma = system: M14 melanoma
# RPMI-8226 leukemia = system: RPMI-8226 leukemia
# SK-OV-3 ovarian = system: SK-OV-3 ovarian
# MALME-3M melanoma = system: MALME-3M melanoma
# BT-549 breast = system: BT-549 breast
# HOP-92 NSCLC = system: HOP-92 NSCLC
# KM12 colon = system: KM12 colon
# UACC-62 melanoma = system: UACC-62 melanoma
# CAKI-1 renal = system: CAKI-1 renal
# NCI-H522 lung = system: NCI-H522 lung
# U251 CNS = system: U251 CNS
# SF-295 CNS = system: SF-295 CNS
# 786-0 renal = system: 786-0 renal
# TK-10 renal = system: TK-10 renal
# SK-MEL-28 melanoma = system: SK-MEL-28 melanoma
structure (smiles),measurement,setting,value
CS(=O)(=O)c1nccc(-c2c(-c3cccc(OCc4ccc(Cl)c(C(F)(F)F)c4)c3)nc3sccn23)n1,GI50,SNB-19 CNS,6.53 µM
same,TGI,SNB-19 CNS,13 µM
same,GI50,NCI-H226 lung,2.4 µM
same,TGI,NCI-H226 lung,11.9 µM
same,GI50,SF-539 CNS,7.64 µM
same,TGI,SF-539 CNS,15 µM
same,GI50,MDA-MB-435,9.02 µM
same,TGI,MDA-MB-435,17.9 µM
same,GI50,PC-3 prostate,1.8 µM
same,TGI,PC-3 prostate,6.61 µM
same,GI50,HCT-116 colon,6.53 µM
same,TGI,HCT-116 colon,12.9 µM
same,GI50,SK-MEL-5 melanoma,7.98 µM
same,TGI,SK-MEL-5 melanoma,14.9 µM
same,GI50,MDA-MB-231 breast,1.07 µM
same,TGI,MDA-MB-231 breast,2.38 µM
same,GI50,HCT-15 colon,1.02 µM
same,TGI,HCT-15 colon,2.42 µM
same,GI50,NCI-H460 lung,2 µM
same,TGI,NCI-H460 lung,7.28 µM
same,GI50,SK-MEL-2 melanoma,3.31 µM
same,TGI,SK-MEL-2 melanoma,9.61 µM
same,GI50,CCRF-CEM leukemia,1.67 µM
same,TGI,CCRF-CEM leukemia,> 50 µM
same,GI50,M14 melanoma,6.93 µM
same,TGI,M14 melanoma,14.1 µM
same,GI50,RPMI-8226 leukemia,1.33 µM
same,TGI,RPMI-8226 leukemia,3.64 µM
same,GI50,SK-OV-3 ovarian,10.3 µM
same,TGI,SK-OV-3 ovarian,33.7 µM
same,GI50,MALME-3M melanoma,7.27 µM
same,TGI,MALME-3M melanoma,14.6 µM
same,GI50,BT-549 breast,1.52 µM
same,TGI,BT-549 breast,5.51 µM
same,GI50,HOP-92 NSCLC,2.17 µM
same,TGI,HOP-92 NSCLC,9.74 µM
same,GI50,KM12 colon,9.47 µM
same,TGI,KM12 colon,17.8 µM
same,GI50,UACC-62 melanoma,8.49 µM
same,TGI,UACC-62 melanoma,16.9 µM
same,GI50,CAKI-1 renal,7.54 µM
same,TGI,CAKI-1 renal,14.7 µM
same,GI50,NCI-H522 lung,1.65 µM
same,TGI,NCI-H522 lung,8.06 µM
same,GI50,U251 CNS,7.53 µM
same,TGI,U251 CNS,14.4 µM
same,GI50,SF-295 CNS,7.15 µM
same,TGI,SF-295 CNS,15.2 µM
same,GI50,786-0 renal,8.45 µM
same,TGI,786-0 renal,15.3 µM
same,GI50,TK-10 renal,7.99 µM
same,TGI,TK-10 renal,14.9 µM
same,GI50,SK-MEL-28 melanoma,6.48 µM
same,TGI,SK-MEL-28 melanoma,13.1 µM

# Source: PubChem BioAssay (NCI)
